{"source": "patent US20220184028A1", "about": "“TREATMENT OF AMYOTROPHIC LATERAL SCLEROSIS USING PKC ACTIVATORS” (Synaptogenix, Inc., priority 2020, published 2022)", "assay": "Blood-brain-barrier crossing, brain and plasma levels in mice", "assay_type": "in vivo", "details": "intravenous", "procedure": "Further evaluation may be performed on bryostatin or other PKC activating compound crossing the blood-brain-barrier (BBB) and the steady state levels of bryostatin or other PKC activating compound in the brain and plasma of mice.\nIn contrast, plasma concentrations of bryostatin or other PKC activating compound may be greater when the drug is administered as a single injection for three consecutive weeks. Blood plasma concentrations of bryostatin or other PKC activating compound may be less in mice receiving a 25 μg/m^2 dose as a “1 on/1 off” or a “2 on/1 off” administration. Without being bound to a specific theory, it may be hypothesized that the intermittent dosing regimen facilitates the transport of bryostatin or other PKC activating compound across the BBB."}
{"smiles": "CCC/C=C/C=C/C(=O)O[C@H]1/C(=C/C(=O)OC)C[C@H]2C[C@H]([C@@H](C)O)OC(=O)C[C@H](O)C[C@@H]3C[C@H](OC(C)=O)C(C)(C)[C@](O)(C[C@@H]4C/C(=C/C(=O)OC)C[C@H](/C=C/C(C)(C)[C@]1(O)O2)O4)O3", "note": "[Bryostatin-1]", "values": [{"measurement": "crossing the blood-brain-barrier", "value": "crosses the BBB"}]}
